This is an account of results in US20070010669A1, “Novel class of cytodifferentiating agents and histone deacetylase inhibitors, and methods of use thereof” (priority 1999, published 2007).

One series has as its target HDAC (Homo sapiens, UniProt Q13547). Description: Inhibition of the enzyme HDAC (Examples 12 and 13). The series is classed as biochemical. The note with it: read-out: ID50 as inhibitor of HDAC.
Series [1] relates to Murine erythroleukemia (MEL) cells. Description: MEL cell differentiation assay (benzidine assay; cell growth by Coulter Counter). The series is classed as cell-based. To be noted: for MEL Differentiation % B+ / MEL Differentiation Opt.: Table 1; for MEL Differentiation % B+: benzidine-positive cells at Opt. concentration; for MEL Differentiation Opt.: optimal concentration; for MEL Diff Cells/ml × 10^−5: cell growth. On the procedure: The MEL cell differentiation assay was used to assess the ability of Compound 1 to induce terminal differentiation. MEL cells (logarithmically dividing) were cultured with the indicated concentrations of Compound 1. Following a 5-day culture period, cell growth was determined using a Coulter Counter and differentiation was determined microscopically using the benzidine assay to determine hemoglobin protein accumulation on a per cell basis.
The MEL cell differentiation assay was used to assess the ability of Compound 2 to induce terminal differentiation. MEL cells (logarithmically dividing) were cultured with the indicated concentrations of Compound 2. Following a 5-day culture period differentiation was determined microscopically using the benzidine assay to determine hemoglobin protein accumulation on a per cell basis.
The MEL cell differentiation assay was used to assess the ability of Compound 3 to induce terminal differentiation. MEL cells (logarithmically dividing) were cultured with the indicated concentrations of Compound 3. Following a 5-day culture period differentiation was determined microsdopically using the benzidine assay to determine hemoglobin protein accumulation on a per cell basis.
The MEL cell differentiation assay was used to assess the ability of Compound 4 to induce terminal differentiation. MEL cells (logarithmically dividing) were cultured with the indicated concentrations of Compound 4. Following a 5-day culture period differentiation was determined microscopically using the benzidine assay to determine hemoglobin protein accumulation on a per cell basis.
All the compounds which were prepared were tested. […] Table 2 is compiled from experiments similar to the experiments described in Examples 7-10 above.

In series [2] the target is T1, affinity purified human epitope-tagged (Flag) HDAC1 (Homo sapiens, UniProt Q13547). Description: Histone Deacetylase (HDAC) enzymatic activity, [3H]acetyl-labeled histone substrate. The series is classed as biochemical. Also on record: Flag. The protocol:
Substrate ([^3H]acetyl-labeled murine erythroleukemia cell-derived histone) was added and the samples were incubated for 20 min at 37° C. in a total volume of 30 μl. The reaction were then stopped and released acetate was extracted and the amount of radioactivity released determined by scintillation counting.
Substrate ([^3H]acetyl-labelled murine erythroleukemia cell-derived histone) was added and the samples were incubated for 20 min at 37° C. in a total volume of 30 μl. The reactions were then stopped and relaesed acetate was extracted and the amount of radioactivity released determined by scintillation counting.
Substrate ([^3H]acetyl-labelled murine erythroleukemia cell-derived histone) was added and the samples were incubated for 20 min at 37° C. in a total volume of 30 μl. The reactions were then stopped and released acetate was extracted and the amount of radioactivity released determined by scintillation counting.
The effect was assayed by incubating the enzyme preparation in the absence of substrate on ice for 20 minutes with the indicated amounts of compound. Substrate([^3H]acetyl-labeled murine erythroleukemia cell-derived histones) was added and the samples were incubated for 20 minutes at 37° C. in a total volume of 30 μl. The reactions were then stopped and released acetate was extracted and the amount of radioactivity released determined by scintillation counting.

The target of the next series is HDAC3 (Homo sapiens, UniProt O15379). To be noted: cited from earlier work.
HDAC3, sequence (O15379 whole entry, the tested form may be a part): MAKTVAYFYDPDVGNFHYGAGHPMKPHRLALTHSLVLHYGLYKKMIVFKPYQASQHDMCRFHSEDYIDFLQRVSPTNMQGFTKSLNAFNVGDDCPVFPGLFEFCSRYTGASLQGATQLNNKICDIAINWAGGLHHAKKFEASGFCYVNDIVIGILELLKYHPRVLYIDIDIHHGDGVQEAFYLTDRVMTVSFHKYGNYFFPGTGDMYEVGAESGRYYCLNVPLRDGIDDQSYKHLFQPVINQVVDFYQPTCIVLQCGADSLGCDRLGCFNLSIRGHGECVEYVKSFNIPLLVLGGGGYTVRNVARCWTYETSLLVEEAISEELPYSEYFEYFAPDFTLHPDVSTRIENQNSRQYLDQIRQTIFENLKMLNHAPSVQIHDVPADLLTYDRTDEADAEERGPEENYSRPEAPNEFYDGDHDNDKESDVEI
HDAC3, sequence (Q9Y618 whole entry, further chain, the tested form may be a part): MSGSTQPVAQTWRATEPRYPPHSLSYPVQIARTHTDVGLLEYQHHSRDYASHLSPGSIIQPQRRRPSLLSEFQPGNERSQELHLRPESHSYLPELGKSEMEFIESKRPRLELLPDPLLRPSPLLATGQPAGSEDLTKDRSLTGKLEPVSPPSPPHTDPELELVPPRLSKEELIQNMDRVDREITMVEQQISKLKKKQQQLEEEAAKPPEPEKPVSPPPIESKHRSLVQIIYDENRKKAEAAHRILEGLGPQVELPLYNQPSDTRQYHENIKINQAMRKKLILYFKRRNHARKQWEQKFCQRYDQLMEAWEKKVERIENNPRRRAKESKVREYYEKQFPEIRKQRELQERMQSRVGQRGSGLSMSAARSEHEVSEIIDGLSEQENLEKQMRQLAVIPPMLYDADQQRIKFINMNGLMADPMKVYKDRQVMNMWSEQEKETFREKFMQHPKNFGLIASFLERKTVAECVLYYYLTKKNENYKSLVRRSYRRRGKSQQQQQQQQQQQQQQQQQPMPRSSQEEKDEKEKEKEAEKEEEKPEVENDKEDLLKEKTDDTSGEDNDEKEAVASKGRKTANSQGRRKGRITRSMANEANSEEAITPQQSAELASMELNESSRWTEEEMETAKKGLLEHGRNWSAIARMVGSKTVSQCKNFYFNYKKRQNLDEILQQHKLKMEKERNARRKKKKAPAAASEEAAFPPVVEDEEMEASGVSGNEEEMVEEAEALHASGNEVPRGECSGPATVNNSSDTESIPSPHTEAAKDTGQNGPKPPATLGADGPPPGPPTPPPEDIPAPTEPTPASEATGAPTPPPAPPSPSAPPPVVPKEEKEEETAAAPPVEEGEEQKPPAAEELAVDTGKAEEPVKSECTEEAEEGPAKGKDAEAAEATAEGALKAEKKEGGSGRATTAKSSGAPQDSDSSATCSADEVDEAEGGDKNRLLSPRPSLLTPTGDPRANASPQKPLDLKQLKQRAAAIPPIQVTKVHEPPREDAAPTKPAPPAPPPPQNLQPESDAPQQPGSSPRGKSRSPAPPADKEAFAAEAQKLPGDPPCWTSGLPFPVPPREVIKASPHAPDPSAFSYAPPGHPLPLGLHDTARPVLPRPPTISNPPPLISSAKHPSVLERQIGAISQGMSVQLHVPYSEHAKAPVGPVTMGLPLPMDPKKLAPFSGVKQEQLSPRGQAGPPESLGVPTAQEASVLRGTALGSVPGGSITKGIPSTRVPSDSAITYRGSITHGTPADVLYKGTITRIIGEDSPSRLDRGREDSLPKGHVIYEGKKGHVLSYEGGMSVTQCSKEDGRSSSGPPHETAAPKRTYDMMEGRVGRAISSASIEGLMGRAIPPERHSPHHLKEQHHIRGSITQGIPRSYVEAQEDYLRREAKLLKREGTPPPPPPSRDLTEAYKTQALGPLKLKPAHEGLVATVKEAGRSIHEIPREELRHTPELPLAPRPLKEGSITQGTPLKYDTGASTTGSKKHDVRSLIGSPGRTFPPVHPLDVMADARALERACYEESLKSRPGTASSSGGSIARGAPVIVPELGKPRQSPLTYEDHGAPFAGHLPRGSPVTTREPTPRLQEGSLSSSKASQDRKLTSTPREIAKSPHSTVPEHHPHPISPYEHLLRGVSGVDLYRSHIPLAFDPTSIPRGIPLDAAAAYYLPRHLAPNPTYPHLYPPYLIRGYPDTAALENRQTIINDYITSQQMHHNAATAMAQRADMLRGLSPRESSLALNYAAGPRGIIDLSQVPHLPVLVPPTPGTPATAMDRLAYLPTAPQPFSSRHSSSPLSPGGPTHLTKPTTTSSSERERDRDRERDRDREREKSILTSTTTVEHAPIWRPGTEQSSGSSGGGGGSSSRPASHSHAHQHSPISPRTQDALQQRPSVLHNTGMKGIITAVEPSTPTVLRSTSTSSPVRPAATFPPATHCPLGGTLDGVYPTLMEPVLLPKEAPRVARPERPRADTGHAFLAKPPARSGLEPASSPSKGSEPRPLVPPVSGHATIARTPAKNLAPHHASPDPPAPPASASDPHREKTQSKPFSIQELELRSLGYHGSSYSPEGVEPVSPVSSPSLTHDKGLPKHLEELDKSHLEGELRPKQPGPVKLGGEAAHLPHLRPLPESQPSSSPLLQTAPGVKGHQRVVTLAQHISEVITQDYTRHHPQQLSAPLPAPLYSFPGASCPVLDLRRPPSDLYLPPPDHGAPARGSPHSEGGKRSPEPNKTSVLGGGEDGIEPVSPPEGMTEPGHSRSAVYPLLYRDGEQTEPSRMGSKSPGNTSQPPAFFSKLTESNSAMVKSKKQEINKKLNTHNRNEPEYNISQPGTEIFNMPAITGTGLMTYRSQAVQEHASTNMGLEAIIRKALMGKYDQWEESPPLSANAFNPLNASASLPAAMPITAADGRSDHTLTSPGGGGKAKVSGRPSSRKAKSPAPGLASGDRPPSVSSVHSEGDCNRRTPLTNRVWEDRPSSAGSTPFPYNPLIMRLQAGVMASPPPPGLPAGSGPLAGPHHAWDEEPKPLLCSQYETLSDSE
The test system of series [3] is acetylated histones H3 and H4 in peripheral blood mononuclear cells. Description: Acetylated histones in peripheral blood mononuclear cells of patients under treatment. The series is classed as in vivo. The note with it: IV infusion daily ×3, FIG. 10. The protocol:
FIG. 10. SAHA causes accumulation of acetylation histones H3 and H4 in peripheral blood […] cells in patients. SAHA was administered by IV infusion daily ×3. Samples were isolated before (Pre), following infusion (Post) and 2 hours after infusion.
The in vivo effect of SAHA has been studied using the CWR22 human prostate xenograft in mice (68).

Series [4] relates to CWR22 human prostate xenograft. To be noted: 50 mg/kg/day. From the text: SAHA is currently in Phase I Clinical Trials in patients with solid tumors.
Series [5] deals with T1, affinity purified human epitope-tagged (Flag) HDAC1. The note with it: cited from earlier work.
Setting [6] is: Table 2, unit nM, read-out: HDAC inh ID50.

Read-outs that look alike come from different tables or passages of the source.

HDAC, sequence (Q13547 whole entry): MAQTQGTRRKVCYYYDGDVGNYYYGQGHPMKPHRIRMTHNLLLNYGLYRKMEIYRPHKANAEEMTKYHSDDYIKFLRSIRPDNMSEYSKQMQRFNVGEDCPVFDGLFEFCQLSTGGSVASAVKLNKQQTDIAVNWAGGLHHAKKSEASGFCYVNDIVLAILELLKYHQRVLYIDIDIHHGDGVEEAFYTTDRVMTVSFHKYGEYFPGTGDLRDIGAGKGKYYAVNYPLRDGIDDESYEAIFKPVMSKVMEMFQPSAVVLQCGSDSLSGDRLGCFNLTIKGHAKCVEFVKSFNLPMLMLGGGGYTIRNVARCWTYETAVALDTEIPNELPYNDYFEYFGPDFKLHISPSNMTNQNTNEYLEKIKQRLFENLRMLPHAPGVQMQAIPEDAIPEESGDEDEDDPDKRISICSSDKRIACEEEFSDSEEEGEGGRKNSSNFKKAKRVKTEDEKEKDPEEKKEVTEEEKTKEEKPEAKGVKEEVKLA
T1 sequence (Q13547 whole entry): as above

For the compound `O=C(CCCCC[C@H](NC(=O)OCc1ccccc1)C(=O)Nc1cccc2cccnc12)NO` [Compound 4, N-benzyloxycarbonyl-(L)-α-aminosuberoyl-8-quinolinamide-ω-hydroxamic acid], the IC50 on HDAC (Example 12) was 2.5 nM; in series [2] (FIGS. 2, 5, 7, read-out: ID50 of HDAC1 enzymatic activity), less than 10 nM; in series [2] (Table 1, read-out: HDAC Inhibition ID50), less than 10 nM; in series [2] (setting [6]), 2.5 nM. For the same compound, the “concentration able to induce MEL cell differentiation” value in series [1] (FIGS. 1, 3, 4, 6, 5-day culture) came to 40 nM. The “MEL Differentiation % B+” value in series [1] is 8%. In series [1] (5-day culture), the “MEL Differentiation Opt.” value is listed as 40 nM. The “MEL Diff % B+” value in series [1] (Table 2) came out at 8%. For the same compound, in series [1] (Table 2), the “MEL Diff Cells/ml × 10^−5” value is 13 Cells/ml × 10^−5.

Regarding `O=C(CCCCCC(C(=O)Nc1cccc2cccnc12)C(=O)Nc1cccc2cccnc12)NO` [Compound 7], the IC50 at HDAC (Example 12) was determined as 50 nM.

In the case of `O=C(/C=C/c1cccc(CC(=O)Nc2ccccc2)c1)NO` [Compound 689], in series [1] (Table 2), the “MEL Diff % B+” value was 48%. For the same compound, the IC50 in series [2] (setting [6]) was 200 nM.

On to `O=C(/C=C/c1cccc(C(C(=O)Nc2cccc3cccnc23)C(=O)Nc2cccc3cccnc23)c1)NO` [Compound 690], for which the “MEL Diff % B+” value in series [1] (Table 2) worked out at 38%. Moreover, in series [2] (setting [6]), the IC50 is 150 nM.

For the compound `O=C(CCCCCC(C(=O)Nc1cccc2ncccc12)C(=O)Nc1cccc2ncccc12)NO` [Compound 691], in series [1] (Table 2), the “MEL Diff % B+” value is 0% and the “MEL Diff Cells/ml × 10^−5” value is “No inh”. The IC50 in series [2] (setting [6]) came out at 100 nM.

On to `O=C(CCCCCCC(=O)Nc1nccs1)Nc1ccccc1` [Compound 693], for which, in series [1] (Table 2), the “MEL Diff % B+” value came to 0% and the “MEL Diff Cells/ml × 10^−5” value is reported as “No inh”. The IC50 in series [2] (Table 2, unit μM, read-out: HDAC inh ID50) is more than 100000 nM.

Consider `O=C(CCCCCCC(=O)Nc1ccccc1)NO` [SAHA, suberoylanilide hydroxamic acid, reference compound], for which, on HDAC3, the “inhibition of affinity purified HDAC3” value is listed as “inhibits”. The IC50 at HDAC is 1000 nM. Moreover, the “acetylated histones H3 and H4 in peripheral blood mononuclear cells” value in series [3] is on record as “accumulation”. The “optimal dose for the cytodifferentiation of MEL cells” value in series [1] (Example 12) was 2.5 µM. Further, the “MEL Differentiation % B+” value in series [1] is given as 68%. The “MEL Differentiation Opt.” value in series [1] (5-day culture) is 2500 nM. In series [1] (Table 2), the “MEL Diff % B+” value is listed as 68% and the “MEL Diff Cells/ml × 10^−5” value was 3.6 Cells/ml × 10^−5. Moreover, in series [1] (Table 2, cells printed in μM), the “MEL Diff Opt.” value stood at 2.5 µM. Further, in series [4], the “reduction in mean final tumor volume compared to controls” value worked out at 97% and the toxicity entry is reported as “no .apparent toxicity”. Besides, the “acetylated histones H3 and H4 in the tumor xenograft” value in series [4] (FIG. 9) was “increase”. Besides, in series [5], the “inhibition of affinity purified HDAC1” value is recorded as “inhibits”.
